The results in this text go back to patent publication US12692274B2, “Tetrahydroisoquinoline derivatives for the treatment of red blood disorders and inflammatory diseases” (Sanofi, priority 2020, dated 2026).

“And” between values parts separate entries of the source, which are not always exact repeats. Equal values may be shown once.

Test [1] has as its system NQO1 activation in BEAS-2B cells. As to the kind of experiment: BEAS-2B cellular MTT assay of NQO1 activation, 0% HSA. It is filed as cell-based. The note with it: Serum Free W, read-out: BEAS EC50 (nM) Serum Free W. In a few lines:
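For the 0% HSA condition, cells were seeded into collagen plates in HSA-free medium. Culture was BEAS-2B in BEBM plus BEGM SingleQuots lacking GA-1000, held under 70% confluence, at a seeding density reaching 95-100% confluence by 48 h.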
In general terms: Tetrazolium assays rely on reduction of a dye to a coloured formazan, in cell work by metabolically active cells.

Test [2] shares this test system. In words: BEAS-2B cellular MTT assay of NQO1 activation, 0.3% HSA. The format is cell-based. The settings on record: BEAS+ W, read-out: BEAS+ W EC50. In a few lines: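 MTT read-out in BEAS-2B cells grown in BEBM with SingleQuots, no GA-1000, kept below 70% confluence; plates coated with collagen, with 0.3% or 0% HSA medium, seeded to 95-100% confluency at 48 h, 37 °C, 5% CO2.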

In test [3] the target is HIS-Keap1 full length / Biotin-Nrf2 (16-mer) (Homo sapiens, UniProt Q14145). In words: biochemical.
Chain of HIS-Keap1 full length / Biotin-Nrf2 (16-mer) (Q14145 whole entry): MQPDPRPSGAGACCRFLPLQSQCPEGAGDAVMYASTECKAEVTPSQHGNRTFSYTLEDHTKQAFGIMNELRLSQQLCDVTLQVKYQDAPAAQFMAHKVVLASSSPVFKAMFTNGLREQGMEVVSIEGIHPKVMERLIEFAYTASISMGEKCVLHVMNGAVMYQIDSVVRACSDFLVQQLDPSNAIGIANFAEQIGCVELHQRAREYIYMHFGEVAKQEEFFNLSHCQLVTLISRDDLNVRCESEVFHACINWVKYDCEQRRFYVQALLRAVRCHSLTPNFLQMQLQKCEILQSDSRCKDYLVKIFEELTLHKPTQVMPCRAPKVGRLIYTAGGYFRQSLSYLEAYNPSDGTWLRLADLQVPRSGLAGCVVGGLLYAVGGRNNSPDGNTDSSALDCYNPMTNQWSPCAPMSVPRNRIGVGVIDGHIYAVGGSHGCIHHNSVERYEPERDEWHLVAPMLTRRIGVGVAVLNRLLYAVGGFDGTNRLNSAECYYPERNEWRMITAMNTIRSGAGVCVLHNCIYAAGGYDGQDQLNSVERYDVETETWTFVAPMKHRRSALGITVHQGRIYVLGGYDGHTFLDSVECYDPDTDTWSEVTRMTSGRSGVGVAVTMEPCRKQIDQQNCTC

As to `Cc1c2ccc3c1nnn3CCCCCCc1ccc(cc1OC(F)(F)F)C(=O)N1CCc3ccc(cc3C1)[C@@H]2CC(=O)O` [Compound 42], the EC50 (as a rule, the concentration that produces a half-maximal response) came to 8.7 nM in test [1] (Homo sapiens), 54.1 nM in test [2] and 35 nM in test [2] (Homo sapiens). For the same molecule, the IC50 – broadly, the midpoint of a concentration-inhibition curve – in test [3] was 0.9 nM and 1.4 nM.
`Cc1c2n(C)c3ccc(cc13)C/C=C\CCCn1nnc3c(C)c(cnc31)[C@H](CC(=O)O)c1ccc3c(c1)CN(CC3)C2=O` [Compound 43]: the EC50 is 4.4 nM in test [1] (Homo sapiens); 4.3 nM and 3.7 nM in test [1]; 43.5 nM and 37 nM in test [2]; 42.9 nM in test [2] (Homo sapiens). The molecule further gave an IC50 in test [3] of 0.2 nM.
As for `O=C(O)C[C@@H]1c2cnc(nc2)OCCCCCc2c(F)c(F)c(c(F)c2F)C(=O)N2CCc3ccc1cc3C2` [Compound 44], the half-maximal effective concentration (EC50) in test [1] (Homo sapiens) stood at 393 nM; in test [2] (Homo sapiens), 1560 nM. Also, in test [3], the IC50 was 6.7 nM and 5.1 nM.
`O=C(O)C[C@H]1c2cnc(nc2)OCCCCCc2c(F)c(F)c(c(F)c2F)C(=O)N2CCc3ccc1cc3C2` [Compound 45]: the figures for the EC50 in test [1] (Homo sapiens) and in test [2] (Homo sapiens) were greater than 1000 nM and greater than 10000 nM, respectively. Also, the IC50 in test [3] was 229 nM and 244 nM.
As to `C[C@@H](C(=O)O)[C@@H]1c2ccc(nc2)OCC/C=C/Cc2ccc(cc2)C(=O)N2CCc3ccc1cc3C2` [Compound 46], the EC50 was 0.7 nM in test [1] (Homo sapiens), 0.5 nM in test [1], 2 nM in test [2] and 3.3 nM in test [2] (Homo sapiens). Moreover, in test [3], the IC50 is 0.4 nM and 0.3 nM.
As for `C[C@H](C(=O)O)[C@@H]1c2ccc(nc2)OCC/C=C/Cc2ccc(cc2)C(=O)N2CCc3ccc1cc3C2` [Compound 47], the EC50 in test [1] (Homo sapiens) was 26.2 nM; in test [1] it was 26 nM and 28.7 nM; in test [2], 94.2 nM and 96.9 nM; in test [2] (Homo sapiens) it was 140 nM. In test [3], this molecule gave an IC50 of 26.4 nM.
For `Cc1c2ccc3c1nnn3CCCCCCc1ccc(c3cccnc13)C(=O)N1CCc3ccc(cc3C1)[C@@H]2CC(=O)O` [Compound 48], the concentration for a half-maximal effect (EC50) is 12 nM in test [1] (Homo sapiens), 9.1 nM in test [1], 23.9 nM in test [2] and 26.1 nM in test [2] (Homo sapiens). For the same molecule, the IC50 in test [3] is 0.1 nM and 0.2 nM.
Take `Cc1c2cnc3c1nnn3CCCCCc1cccc3c1cc(n3C)C(=O)N1CCc3ccc(cc3C1)C2CC(=O)O` (stereo not shown) [Compound 49]: the EC50 in test [1] (Homo sapiens) amounted to 27 nM; in test [1] it was 28.8 nM; in test [2] it was 93.2 nM; in test [2] (Homo sapiens), 117 nM. The IC50 in test [3] is 0.6 nM (2×) and 0.4 nM and 0.5 nM.
As to `Cc1c2ccc3c1nnn3CCCCCCc1ccc(c3ncccc13)C(=O)N1CCc3ccc(cc3C1)[C@@H]2CC(=O)O` [Compound 50], the EC50 was found to be 57.3 nM in test [1] (Homo sapiens), 47.6 nM in test [1], 138 nM in test [2] and 89.7 nM in test [2] (Homo sapiens). The IC50 in test [3] was 0.2 nM and 0.3 nM.
Consider `Cc1c2ccc3c1nnn3CCCCCc1ccc(c3ncccc13)C(=O)N1CCc3ccc(cc3C1)[C@@H]2CC(=O)O` [Compound 51], for which the EC50 came out at 44.9 nM in test [1] (Homo sapiens), 38.6 nM in test [1], 125 nM in test [2] and 70.6 nM in test [2] (Homo sapiens). For the same molecule, the IC50 in test [3] is 0.3 nM and 0.2 nM.
Take `C[C@H](C(=O)O)[C@@H]1c2ccc(nc2)OCCCCCc2ccc(cc2)C(=O)N2CCc3ccc1cc3C2` [Compound 55]: the EC50 in test [1] (Homo sapiens) is 125 nM; in test [1], 147 nM; in test [2], 354 nM; in test [2] (Homo sapiens) it was 482 nM. Moreover, the IC50 in test [3] is 215 nM and 226 nM and 220 nM and 201 nM.
In the case of `Cc1cc2ncc1[C@@H]([C@H](C)C(=O)O)c1ccc3c(c1)CN(CC3)C(=O)c1ccc(cc1)C/C=C/CCO2` [Compound 58], the EC50 came out at 9.7 nM in test [1] (Homo sapiens), 8.8 nM in test [1], 35.1 nM in test [2] and 26.5 nM in test [2] (Homo sapiens). For the same molecule, the IC50 in test [3] was 10.9 nM and 8.4 nM.
Regarding `Cc1cc2ncc1[C@H]([C@@H](C)C(=O)O)c1ccc3c(c1)CN(CC3)C(=O)c1ccc(cc1)C/C=C/CCO2` [Compound 59], the EC50 in test [1] (Homo sapiens) came to 1.7 nM; in test [1] it was 1.6 nM; in test [2], 4.4 nM; in test [2] (Homo sapiens) it was 5 nM. Further, the IC50 in test [3] is 8.1 nM and 7.3 nM.
As to `Cc1cc2ncc1[C@H]([C@H](C)C(=O)O)c1ccc3c(c1)CN(CC3)C(=O)c1ccc(cc1)C/C=C/CCO2` [Compound 62], the EC50 is 0.2 nM in test [1] (Homo sapiens); 0.1 nM in test [1]; 0.4 nM and 0.3 nM in test [2]; less than 0.5 nM in test [2] (Homo sapiens). Further, in test [3], the IC50 is 0.4 nM and 0.8 nM.
As for `Cc1c2n(C)c3ccc(cc13)CCCCCCn1nnc3c(C)c(cnc31)[C@@H](CC(=O)O)c1ccc3c(c1)CN(CC3)C2=O` [Compound 63], the EC50 in test [1] (Homo sapiens) was 0.7 nM; in test [1], 0.9 nM; in test [2] it was 3.7 nM and 3.5 nM; in test [2] (Homo sapiens) it was 2.8 nM. Besides, the IC50 in test [3] was 0.5 nM and 0.4 nM.
With `Cc1c2n(C)c3ccc(cc13)C/C=C\CCCn1nnc3c(C)c(cnc31)[C@@H](CC(=O)O)c1ccc3c(c1)CN(CC3)C2=O` [Compound 65], the EC50 was determined as 3.7 nM in test [1] (Homo sapiens), 2.7 nM in test [1], 23.9 nM in test [2] and 18.4 nM in test [2] (Homo sapiens). For the same molecule, the IC50 in test [3] is 1.5 nM and 1.6 nM.
Turning to `C[C@@H](C(=O)O)[C@H]1c2ccc(nc2)OCC/C=C/Cc2ccc(cc2)C(=O)N2CCc3ccc1cc3C2` [Compound 66], the EC50 was determined as 20.6 nM in test [1] (Homo sapiens), 27.6 nM in test [1], 55.6 nM in test [2] and 39.3 nM in test [2] (Homo sapiens). The IC50 in test [3] is 31.9 nM and 29.5 nM.
As for `Cc1c2cnc3c1nnn3CCCCCCCc1ccc(cc1)C(=O)N1CCc3ccc(cc3C1)[C@H]2CC(=O)O` [Compound 67], the EC50 in test [1] (Homo sapiens) was 23 nM; in test [1], 23.5 nM; in test [2], 166 nM; in test [2] (Homo sapiens) it was 159 nM. Moreover, the IC50 in test [3] is 14 nM and 14.5 nM.
Turning to `Cc1c2ccc3c1nnn3CCCCCCc1ccc3c(c1)cc(n3CCCF)C(=O)N1CCc3ccc(cc3C1)[C@@H]2CC(=O)O` [Compound 69], the EC50 turned out to be 7.7 nM in test [1] (Homo sapiens), 9 nM in test [1], 549 nM in test [2] and 494 nM in test [2] (Homo sapiens). For the same molecule, the IC50 in test [3] was 0.9 nM and 0.7 nM.
As for `Cc1cc2cnc1OCCCCCc1ccc(cc1)C(=O)N1CCc3ccc(cc3C1)[C@H]2[C@H](C)C(=O)O` [Compound 70], the EC50 in test [1] (Homo sapiens) amounted to 32.4 nM; in test [1], 29.9 nM; in test [2] it was 221 nM; in test [2] (Homo sapiens), 150 nM. Also, the IC50 in test [3] is 594 nM and 763 nM.
Turning to `Cc1cc2ncc1[C@H]([C@@H](C)C(=O)O)c1ccc3c(c1)CN(CC3)C(=O)c1ccc(cc1)CCCCCO2` [Compound 75], the EC50 in test [1] (Homo sapiens) came to 9.1 nM; in test [1], 16 nM; in test [2], 60 nM; in test [2] (Homo sapiens), 45.2 nM. Moreover, in test [3], the IC50 was 21.7 nM and 22.7 nM.
Consider `Cc1c2cnc3c1nnn3CCCCCCCc1ccc(cc1)C(=O)N1CCc3ccc(cc3C1)[C@@H]2CC(=O)O` [Compound 77], for which the EC50 in test [1] (Homo sapiens) was determined as 11.7 nM; in test [1], 13.7 nM; in test [2], 45.3 nM; in test [2] (Homo sapiens) it was 34.5 nM. The IC50 in test [3] was 0.4 nM and 0.8 nM.
On to `Cc1cc2ncc1[C@H](CC(=O)O)c1ccc3c(c1)CN(CC3)C(=O)c1ccc(cc1)COCCCO2` [Compound 78], for which the EC50 turned out to be 43 nM in test [1] (Homo sapiens), 59.3 nM in test [1], 108 nM in test [2] and 105 nM in test [2] (Homo sapiens). For the same molecule, in test [3], the IC50 was 7.6 nM and 6 nM.
Turning to `Cc1cc2ncc1[C@@H](CC(=O)O)c1ccc3c(c1)CN(CC3)C(=O)c1ccc(cc1)COCCCO2` [Compound 81], the EC50 in test [1] (Homo sapiens) was greater than 1000 nM; in test [1] it was 1840 nM; in test [2] it was 1950 nM; in test [2] (Homo sapiens), 2160 nM. The IC50 in test [3] was 251 nM and 220 nM.
`Cc1cc2cnc1OCC/C=C/Cc1ccc(cc1)C(=O)N1CCc3ccc(cc3C1)[C@@H]2[C@@H](C)C(=O)O` [Compound 83]: the EC50 in test [1] (Homo sapiens) is greater than 1000 nM; in test [1], 1780 nM; in test [2], 8440 nM; in test [2] (Homo sapiens), greater than 10000 nM. Further, the IC50 in test [3] was 4420 nM and 3910 nM.
For `COCCn1c2cc3cc(ccc31)CCCCCCn1nnc3c(C)c(ccc31)[C@@H](CC(=O)O)c1ccc3c(c1)CN(CC3)C2=O` [Compound 85], the EC50 was determined as 39.4 nM in test [1] (Homo sapiens), 61.3 nM in test [1], 244 nM in test [2] and 249 nM in test [2] (Homo sapiens). In addition, the IC50 in test [3] was 1.6 nM and 1.2 nM.
Turning to `COc1cc2ccc1CCCCCn1nnc3c(C)c(cnc31)[C@@H](CC(=O)O)c1ccc3c(c1)CN(CC3)C2=O` [Compound 86], the EC50 in test [1] (Homo sapiens) was determined as 18 nM; in test [1] it was 19.7 nM; in test [2] it was 25.7 nM; in test [2] (Homo sapiens), 20.4 nM. The IC50 in test [3] is 0.9 nM and 0.8 nM.
`COc1cc2ccc1CCCCCn1nnc3c(C)c(cnc31)[C@H](CC(=O)O)c1ccc3c(c1)CN(CC3)C2=O` [Compound 87]: the EC50 was 13 nM in test [1] (Homo sapiens), 18.2 nM in test [1], 38.1 nM in test [2] and 40.5 nM in test [2] (Homo sapiens). The IC50 in test [3] was 0.8 nM and 0.9 nM.
`COc1cc2ccc1C(=O)N1CCc3ccc(cc3C1)[C@@H](CC(=O)O)c1cnc3c(nnn3CCCCC2)c1C` [Compound 88]: the EC50 turned out to be 35.3 nM in test [1] (Homo sapiens), 40.4 nM in test [1], 101 nM in test [2] and 88.5 nM in test [2] (Homo sapiens). The IC50 in test [3] is 1 nM and 1.1 nM.
For `COc1cc2ccc1C(=O)N1CCc3ccc(cc3C1)[C@H](CC(=O)O)c1cnc3c(nnn3CCCCC2)c1C` [Compound 89], the EC50 in test [1] (Homo sapiens) came to 30.6 nM; in test [1], 22.8 nM; in test [2], 48.5 nM; in test [2] (Homo sapiens) it was 38.7 nM. For the same molecule, in test [3], the IC50 was 0.8 nM and 0.9 nM.
